The experiment concerns the target T1, PLK1 (Homo sapiens, UniProt P53350).
T1 construct: Full-length, active GST-PLK1 is purified from Sf9 insect cells; made in house; host or cells: Sf9 insect cells
As to the kind of experiment: Biochemical Characterization Assay: HTRF kinase assay, GST-PLK1 phosphorylation of GST-p53. Particulars: GST-PLK1, GST-p53 substrate. The procedure, abridged: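 Full-length active GST-PLK1 (Sf9, 3 ug/mL) phosphorylated full-length GST-p53 (E. coli) in Kinase Assay Buffer for 35 min at 37 °C. Stopped with EDTA; phospho-p53 detected by HTRF with anti-phospho-p53, Eu-anti-rabbit and APC-anti-GST antibodies.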
On the technique in general: TR-FRET usually uses a lanthanide donor and a delayed reading to cut background.

T1 sequence (P53350 whole entry): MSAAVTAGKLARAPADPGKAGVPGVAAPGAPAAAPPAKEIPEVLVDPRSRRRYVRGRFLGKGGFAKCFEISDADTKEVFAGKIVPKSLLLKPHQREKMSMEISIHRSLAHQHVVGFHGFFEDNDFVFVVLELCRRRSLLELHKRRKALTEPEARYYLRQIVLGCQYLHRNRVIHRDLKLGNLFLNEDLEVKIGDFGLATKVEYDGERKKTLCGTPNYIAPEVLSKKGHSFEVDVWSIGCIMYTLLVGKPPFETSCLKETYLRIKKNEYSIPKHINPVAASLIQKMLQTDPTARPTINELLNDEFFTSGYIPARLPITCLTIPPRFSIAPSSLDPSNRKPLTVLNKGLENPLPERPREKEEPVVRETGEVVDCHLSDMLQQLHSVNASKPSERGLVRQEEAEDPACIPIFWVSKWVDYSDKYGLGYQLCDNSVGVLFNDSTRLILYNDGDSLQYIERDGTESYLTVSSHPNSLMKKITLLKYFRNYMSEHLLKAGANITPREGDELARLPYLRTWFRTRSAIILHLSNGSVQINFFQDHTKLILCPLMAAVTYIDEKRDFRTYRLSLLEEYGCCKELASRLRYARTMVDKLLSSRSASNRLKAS

On to `CN(C)CCNC(=O)c1cc(F)c(Nc2ncc3c(n2)N(C2CCCC2)CC(F)(F)C(=O)N3C)cc1F` [Example I-236, 4-(9-cyclopentyl-7,7-difluoro-5-methyl-6-oxo-6,7,8,9-tetrahydro-5H-pyrimido[4,5-b][1,4]diazepin-2-ylamino)-N-(2-dimethylamino-ethyl)-2,5-difluoro-benzamide], for which the IC50 was 1 to 50 nM.
Still for that read-out and setting: next, `COc1cc(C(=O)O)ccc1Nc1ncc2c(n1)N(CCc1cccs1)CC(F)(F)C(=O)N2C` [Example I-269, 4-[7,7-difluoro-5-methyl-6-oxo-9-(2-thiophen-2-yl-ethyl)-6,7,8,9-tetrahydro-5-pyrimido[4,5-b]diazepin-2-ylamino]-3-methoxy-benzoic acid]: 51 to 500 nM.
`COc1cc(C(=O)NCCCN2CCC(O)CC2)ccc1Nc1ncc2c(n1)N(C1CCCC1)CC(F)(F)C(=O)N2C` [Example I-105, 4-(9-cyclopentyl-7,7-difluoro-5-methyl-6-oxo-6,7,8,9-tetrahydro-5H-pyrimido[4,5-b][1,4]diazepin-2-ylamino)-N-[3-(4-hydroxy-piperidin-1-yl)-propyl]-3-methoxy-benzamide]: the IC50 (ATP) was 1 to 50 nM.
With `CCN1CCC(NC(=O)c2ccc(Nc3ncc4c(n3)N(C3CCC3)CC(F)(F)C(=O)N4C)c(OC)c2)CC1` [Example I-10, 4-(9-cyclobutyl-7,7-difluoro-5-methyl-6-oxo-6,7,8,9-tetrahydro-5H-pyrimido[4,5-b][1,4]diazepin-2-ylamino)-N-(1-ethyl-piperidin-4-yl)-3-methoxy-benzamide], where the note is “ATP”, the IC50 is 1 to 50 nM.
Still for that read-out and setting: next, `COc1cc(C(=O)NN2CCN(C)CC2)ccc1Nc1ncc2c(n1)N(C1CCCC1)CC(F)(F)C(=O)N2C` [Example I-118, 4-(9-cyclopentyl-7,7-difluoro-5-methyl-6-oxo-6,7,8,9-tetrahydro-5H-pyrimido[4,5-b][1,4]diazepin-2-ylamino)-3-methoxy-N-(4-methyl-piperazin-1-yl) benzamide]: 1 to 50 nM.
`COc1cc(C(=O)NCCCN(C)C)ccc1Nc1ncc2c(n1)N(C(C)C)CC(F)(F)C(=O)N2C` [Example I-296, 4-(7,7-difluoro-9-isopropyl-5-methyl-6-oxo-6,7,8,9-tetrahydro-5H-pyrimido[4,5-b][1,4]diazepin-2-ylamino)-N-(3-dimethylamino-propyl)-3-methoxy-benzamide] came in with a concentration for half-maximal inhibition (IC50) of 1 to 50 nM.
Same read-out and setting: next, `CCN1CCC(NC(=O)c2cc(F)c(Nc3ncc4c(n3)N(C3CCCC3)CC(F)(F)C(=O)N4C)cc2F)CC1` [Example I-234, 4-(9-cyclopentyl-7,7-difluoro-5-methyl-6-oxo-6,7,8,9-tetrahydro-5H-pyrimido[4,5-b][1,4]diazepin-2-ylamino)-N-(1-ethyl-piperidin-4-yl)-2,5-difluoro-benzamide]: 1 to 50 nM.
On the same count and under the same terms, next, `COc1cc(C(N)=O)ccc1Nc1ncc2c(n1)N(CCCc1ccccc1)CC(F)(F)C(=O)N2C` [Example I-283, 4-[7,7-difluoro-5-methyl-6-oxo-9-(3-phenyl-propyl)-6,7,8,9-tetrahydro-5H-pyrimido[4,5-b][1,4]diazepin-2-ylamino]-3-methoxy-benzamide]: 51 to 500 nM; `CCN1CCC(NC(=O)c2ccc(Nc3ncc4c(n3)N(C3CCCC3)CC(F)(F)C(=O)N4C)c(F)c2F)CC1` [Example I-244]: 1 to 50 nM.
In turn, `COc1cc(C(=O)N[C@@H]2CCN(C(=O)OCc3ccccc3)C[C@H]2OC)ccc1Nc1ncc2c(n1)N(C1CCCC1)CC(F)(F)C(=O)N2C` (racemic) [Example I-55, rac-(3R,4R)-4-[4-(9-cyclopentyl-7,7-difluoro-5-methyl-6-oxo-6,7,8,9-tetrahydro-5H-pyrimido[4,5-b][1,4]diazepin-2-ylamino)-3-methoxy-benzoylamino]-3-methoxy-piperidine-1-carboxylic acid benzyl ester] yielded an IC50 (ATP) of 51 to 500 nM.
In turn, `COc1cc(C(=O)NC2CCOCC2)ccc1Nc1ncc2c(n1)N(C1CCC1)CC(F)(F)C(=O)N2C` [Example I-7, 4-(9-cyclobutyl-7,7-difluoro-5-methyl-6-oxo-6,7,8,9-tetrahydro-5H-pyrimido[4,5-b][1,4]diazepin-2-ylamino)-3-methoxy-N-(tetrahydro-pyran-4-yl)-benzamide] returned an IC50 (ATP) of 1 to 50 nM.
`COc1cc(C(=O)NC2CCN(CCO)CC2)ccc1Nc1ncc2c(n1)N(C1CCCCC1)CC(F)(F)C(=O)N2C` [Example I-267, 4-(9-cyclohexyl-7,7-difluoro-5-methyl-6-oxo-6,7,8,9-tetrahydro-5H-pyrimido[4,5-b][1,4]diazepin-2-ylamino)-N-[1-(2-hydroxy-ethyl)-piperidin-4-yl]-3-methoxy-benzamide]: the IC50 fell in the range of 1 to 50 nM.
For `COc1cc(C(=O)O)ccc1Nc1ncc2c(n1)N(C(C)C)CC(F)(F)C(=O)N2C` [Example I-292, 4-(7,7-difluoro-9-isopropyl-5-methyl-6-oxo-6,7,8,9-tetrahydro-5H-pyrimido[4,5-b][1,4]diazepin-2-ylamino)-3-methoxy-benzoic acid], the IC50 was 51 to 500 nM.
Take `COc1cc(C(=O)NCCN(C)C)ccc1Nc1ncc2c(n1)N(C1CCC1)CC(F)(F)C(=O)N2C` [Example I-8, 4-(9-cyclobutyl-7,7-difluoro-5-methyl-6-oxo-6,7,8,9-tetrahydro-5H-pyrimido[4,5-b][1,4]diazepin-2-ylamino)-N-(2-dimethylamino-ethyl)-3-methoxy-benzamide]: where the note is “ATP”, the IC50 lay within 1 to 50 nM.
`CCOc1cc(C(N)=O)ccc1Nc1ncc2c(n1)N(C1CCCC1)CC(F)(F)C(=O)N2C` [Example I-223, 4-(9-cyclopentyl-7,7-difluoro-5-methyl-6-oxo-6,7,8,9-tetrahydro-5H-pyrimido[4,5-b][1,4]diazepin-2-ylamino)-3-ethoxy-benzamide] showed an IC50 of 1 to 50 nM.
`COc1cc(C(N)=O)ccc1Nc1ncc2c(n1)N(C1CCC1)CC(F)(F)C(=O)N2C` [Example I-2, 4-(9-cyclobutyl-7,7-difluoro-5-methyl-6-oxo-6,7,8,9-tetrahydro-5H-pyrimido[4,5-b][1,4]diazepin-2-ylamino)-3-methoxy-benzamide] displayed an IC50 (ATP) of 1 to 50 nM.
Regarding `COc1cc(C(=O)NC2CCN(CC(F)F)CC2)ccc1Nc1ncc2c(n1)N(C1CCCCC1)CC(F)(F)C(=O)N2C` [Example I-266, 4-(9-cyclohexyl-7,7-difluoro-5-methyl-6-oxo-6,7,8,9-tetrahydro-5H-pyrimido[4,5-b][1,4]diazepin-2-ylamino)-N-[1-(2,2-difluoro-ethyl)-piperidin-4-yl]-3-methoxy-benzamide], the IC50 lay in the range of 1 to 50 nM.
Consider `COc1cc(C(=O)NCCN2CCNCC2)ccc1Nc1ncc2c(n1)N(C1CCCC1)CC(F)(F)C(=O)N2C` [Example I-49, 4-(9-cyclopentyl-7,7-difluoro-5-methyl-6-oxo-6,7,8,9-tetrahydro-5H-pyrimido[4,5-b][1,4]diazepin-2-ylamino)-3-methoxy-N-(2-piperazin-1-yl-ethyl)-benzamide], for which the IC50 (ATP) lay in the range of 1 to 50 nM.
For `CN(C)CCCNC(=O)c1ccc(Nc2ncc3c(n2)N(C2CCCC2)CC(F)(F)C(=O)N3)cc1` [Example I-135, 4-(9-cyclopentyl-7,7-difluoro-6-oxo-6,7,8,9-tetrahydro-5H-pyrimido[4,5-b][1,4]diazepin-2-yl-amino)-N-(3-dimethyl-amino-propyl)-benzamide], the IC50 (ATP) is 500 to 5000 nM.
`COc1cc(C(=O)Nc2cccnc2)ccc1Nc1ncc2c(n1)N(C1CCCC1)CC(F)(F)C(=O)N2C` [Example I-130, 4-(9-cyclopentyl-7,7-difluoro-5-methyl-6-oxo-6,7,8,9-tetrahydro-5H-pyrimido[4,5-b][1,4]diazepin-2-ylamino)-3-methoxy-N-pyridin-3-yl-benzamide] came in with an IC50 (ATP) of 1 to 50 nM.
As for `COc1cc(C(=O)NC2CCOCC2)ccc1Nc1ncc2c(n1)N(CCCc1ccccc1)CC(F)(F)C(=O)N2C` [Example I-286, 4-[7,7-difluoro-5-methyl-6-oxo-9-(3-phenyl-propyl)-6,7,8,9-tetrahydro-5H-pyrimido[4,5-b][1,4]diazepin-2-ylamino]-3-methoxy-N-(tetrahydro-pyran-4-yl)-benzamide], the IC50 was 51 to 500 nM.
In turn, `COc1cc(C(=O)NC2CCOCC2)ccc1Nc1ncc2c(n1)N(C1CCCC1)CC(F)(F)C(=O)N2` [Example I-155, 4-(9-cyclopentyl-7,7-difluoro-6-oxo-6,7,8,9-tetrahydro-5H-pyrimido[4,5-b][1,4]diazepin-2-ylamino)-3-methoxy-N-(tetrahydro-pyran-4-yl)-benzamide] registered an IC50 (ATP) of more than 5000 nM.
On to `COc1cc(C(=O)NC2CCN(C)CC2)ccc1Nc1ncc2c(n1)N(C(C)C)CC(F)(F)C(=O)N2C` [Example I-293, 4-(7,7-difluoro-9-isopropyl-5-methyl-6-oxo-6,7,8,9-tetrahydro-5H-pyrimido[4,5-b][1,4]diazepin-2-ylamino)-3-methoxy-N-(1-methyl-piperidin-4-yl)-benzamide], for which the IC50 fell in the range of 1 to 50 nM.
For `CN1C(=O)C(F)(F)CN(C2CCCC2)c2nc(Nc3ccc(C(=O)NC4CCNCC4)cc3C(F)(F)F)ncc21` [Example I-212, 4-(9-cyclopentyl-7,7-difluoro-5-methyl-6-oxo-6,7,8,9-tetrahydro-5H-pyrimido[4,5-b][1,4]diazepin-2-ylamino)-N-piperidin-4-yl-3-trifluoromethyl-benzamide], the IC50 fell in the range of 1 to 50 nM.
Take `COc1cc(C(=O)NC2CCN(C3CC3)CC2)ccc1Nc1ncc2c(n1)N(C1CCCC1)CC(F)(F)C(=O)N2C` [Example I-66, 4-(9-cyclopentyl-7,7-difluoro-5-methyl-6-oxo-6,7,8,9-tetrahydro-5H-pyrimido[4,5-b][1,4]diazepin-2-ylamino)-N-(1-cyclopropyl-piperidin-4-yl)-3-methoxy-benzamide]: for the setting “ATP”, the IC50 fell in the range of 1 to 50 nM.
`CN(C)CCCNC(=O)c1cc(F)c(Nc2ncc3c(n2)N(C2CCCC2)CC(F)(F)C(=O)N3C)cc1F` [Example I-237, 4-(9-cyclopentyl-7,7-difluoro-5-methyl-6-oxo-6,7,8,9-tetrahydro-5H-pyrimido[4,5-b][1,4]diazepin-2-ylamino)-N-(3-dimethylamino-propyl)-2,5-difluoro-benzamide] gave an IC50 of 1 to 50 nM.

A word on the IC50: it is the concentration needed to halve the response being measured. Lower therefore signals inhibition by little substance.

(Values after patent US8003785B2 (Takeda Pharmaceutical Company Limited, priority 2008, dated 2011).)
